Laboratory results from patent publication US20170355705A1 (GlaxoSmithKline Intellectual Property (No.2) Limited, priority 2014, published 2017).

Molecular target: T1, SIRT1 (Homo sapiens, UniProt Q96EB6)
T1 sequence (Q96EB6 1-747): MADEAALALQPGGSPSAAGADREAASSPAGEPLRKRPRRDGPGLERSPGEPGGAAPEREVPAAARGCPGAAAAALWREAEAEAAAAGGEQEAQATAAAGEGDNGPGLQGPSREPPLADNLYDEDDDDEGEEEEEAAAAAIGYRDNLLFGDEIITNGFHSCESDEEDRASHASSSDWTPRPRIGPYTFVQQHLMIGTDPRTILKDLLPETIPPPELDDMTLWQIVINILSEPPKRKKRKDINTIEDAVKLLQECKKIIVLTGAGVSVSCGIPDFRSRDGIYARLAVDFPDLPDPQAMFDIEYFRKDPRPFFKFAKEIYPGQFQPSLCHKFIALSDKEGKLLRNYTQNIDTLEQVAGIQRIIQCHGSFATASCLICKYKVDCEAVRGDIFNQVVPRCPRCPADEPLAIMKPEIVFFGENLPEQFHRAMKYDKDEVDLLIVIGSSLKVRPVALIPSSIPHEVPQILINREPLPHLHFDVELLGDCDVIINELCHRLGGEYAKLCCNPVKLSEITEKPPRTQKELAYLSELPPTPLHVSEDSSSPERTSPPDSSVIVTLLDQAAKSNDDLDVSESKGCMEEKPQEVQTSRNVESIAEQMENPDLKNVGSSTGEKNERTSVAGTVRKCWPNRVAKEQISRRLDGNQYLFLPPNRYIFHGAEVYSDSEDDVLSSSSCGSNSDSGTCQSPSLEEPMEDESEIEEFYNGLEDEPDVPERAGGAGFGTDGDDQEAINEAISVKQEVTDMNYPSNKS
Assay: Trp mass spectrometry assay of SIRT1 activity (EC1.5, percent maximum activation)
Format: biochemical
Settings: Trp mass spectrometry assay; for TRP Activity (EC1.5): EC1.5 = concentration giving 150% activation of SIRT1
Outline: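 MS readout: O-acetyl-ADP-ribose (or deacetylated peptide) formed by His-tagged SIRT1 (BL21(DE3)-expressed) on 5TMR-Trp p53-based peptide, 25 min, formic acid stop. EC1.5 = concentration raising activity 50% over no-compound control; % max activation vs control = 100%.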

[1] = percent maximum activation of SIRT1
[2] = 0.5 μM peptide substrate, 120 μM βNAD+, 10 nM SIRT1, 25 minutes at 25° C.

## O=C(Nc1ccnc(O[C@H]2CCOC2)n1)N1c2nc(-c3cccc(C(F)(F)F)c3)c(Cl)cc2N2CC[C@H]1C2 [Example 19, (4S)-8-chloro-N-(2-(((S)-tetrahydrofuran-3-yl)oxy)pyrimidin-4-yl)-7-(3-(trifluoromethyl)phenyl)-3,4-dihydro-1,4-methanopyrido[2,3-b][1,4]diazepine-5(2H)-carboxamide]
  TRP Activity (EC1.5): A (EC1.5<1 μM)
[1]
  TRP MAX RESP (percent maximum fold activation): A (Fold activation ≧150%)

## CCn1cc(-c2nc3c(cc2Cl)N2CC[C@@H](C2)N3C(=O)Nc2ccnc(OC[C@H](O)CO)c2)cn1 [Example 90, (4S)-8-chloro-N-(2-((R)-2,3-dihydroxypropoxy)pyridin-4-yl)-7-(1-ethyl-1H-pyrazol-4-yl)-3,4-dihydro-1,4-methanopyrido[2,3-b][1,4]diazepine-5(2H)-carboxamide]
  TRP Activity (EC1.5): B (EC1.5 1-25 μM)
[1]
  TRP MAX RESP (percent maximum fold activation): A (Fold activation ≧150%)

## Cc1cc(-c2ccc3c(n2)N(C(=O)Nc2c[nH]nn2)[C@H]2CCN3C2)ccn1 [Example 167, (4S)-7-(2-methylpyridin-4-yl)-N-(1H-1,2,3-triazol-4-yl)-3,4-dihydro-1,4-methanopyrido[2,3-b][1,4]diazepine-5(2H)-carboxamide]
  TRP Activity (EC1.5): B (EC1.5 1-25 μM)
[1]
  TRP MAX RESP (percent maximum fold activation): A (Fold activation ≧150%)

## Cc1cc(-c2ccc3c(n2)N(C(=O)Nc2nc4scc(C)n4n2)[C@H]2CCN3C2)ccn1 [Example 202, (4S)-7-(2-methylpyridin-4-yl)-N-(6-methylthiazolo[3,2-b][1,2,4]triazol-2-yl)-3,4-dihydro-1,4-methanopyrido[2,3-b][1,4]diazepine-5(2H)-carboxamide]
[2]
  TRP Activity (EC1.5, concentration of test compound that results in 150% activation of SIRT1): B (EC1.5 1-25 μM)
  TRP MAX RESP (percent maximum fold activation): A (Fold activation ≧150%)

## Cc1cc(-c2nc3c(c(C)c2C)N2CC[C@@H](C2)N3C(=O)Nc2cccnc2)ccn1 [Example 91, (4S)-8,9-dimethyl-7-(2-methylpyridin-4-yl)-N-(pyridin-3-yl)-3,4-dihydro-1,4-methanopyrido[2,3-b][1,4]diazepine-5(2H)-carboxamide]
  TRP Activity (EC1.5): B (EC1.5 1-25 μM)
[1]
  TRP MAX RESP (percent maximum fold activation): A (Fold activation ≧150%)

## Cc1ccc(-c2ccc3c(n2)N(C(=O)Nc2cnccn2)[C@H]2CCN3C2)c(C)n1 [Example 200, (4S)-7-(2,6-dimethylpyridin-3-yl)-N-(pyrazin-2-yl)-3,4-dihydro-1,4-methanopyrido[2,3-b][1,4]diazepine-5(2H)-carboxamide]
  TRP Activity (EC1.5): B (EC1.5 1-25 μM)
[1]
  TRP MAX RESP (percent maximum fold activation): A (Fold activation ≧150%)

## Cc1cc(-c2ccc3c(n2)N(C(=O)Nc2ccc4[nH]cnc4n2)[C@H]2CCN3C2)ccn1 [Example 189, (4S)-N-(1H-imidazo[4,5-b]pyridin-5-yl)-7-(2-methylpyridin-4-yl)-3,4-dihydro-1,4-methanopyrido[2,3-b][1,4]diazepine-5(2H)-carboxamide]
  TRP Activity (EC1.5): B (EC1.5 1-25 μM)
[1]
  TRP MAX RESP (percent maximum fold activation): A (Fold activation ≧150%)

## O=C(Nc1cccc(OC[C@@H](O)CO)n1)N1c2nc(-c3cccc(C(F)(F)F)c3)c(Cl)cc2N2CC[C@H]1C2 [Example 71, (4S)-8-chloro-N-(6-((S)-2,3-dihydroxypropoxy)pyridin-2-yl)-7-(3-(trifluoromethyl)phenyl)-3,4-dihydro-1,4-methanopyrido[2,3-b][1,4]diazepine-5(2H)-carboxamide]
  TRP Activity (EC1.5): A (EC1.5<1 μM)
[1]
  TRP MAX RESP (percent maximum fold activation): A (Fold activation ≧150%)

## Cl.O=C(Nc1cccc(OC[C@@H](O)CO)n1)N1c2nc(-c3cccc(C(F)(F)F)c3)c(Cl)cc2N2CC[C@H]1C2 [Example 68, (4S)-8-chloro-N-(6-((S)-2,3-dihydroxypropoxy)pyridin-2-yl)-7-(3-(trifluoromethyl)phenyl)-3,4-dihydro-1,4-methanopyrido[2,3-b][1,4]diazepine-5(2H)-carboxamide Hydrochloride]
  TRP Activity (EC1.5): A (EC1.5<1 μM)
[1]
  TRP MAX RESP (percent maximum fold activation): A (Fold activation ≧150%)

## Cc1ncc(-c2ccnc(NC(=O)N3c4nc(-c5cccc(C(F)(F)F)c5)cc(C)c4N4CC[C@H]3C4)c2)o1 [Example 86, (4S)-9-methyl-N-(4-(2-methyloxazol-5-yl)pyridin-2-yl)-7-(3-(trifluoromethyl)phenyl)-3,4-dihydro-1,4-methanopyrido[2,3-b][1,4]diazepine-5(2H)-carboxamide]
  TRP Activity (EC1.5): A (EC1.5<1 μM)
[1]
  TRP MAX RESP (percent maximum fold activation): A (Fold activation ≧150%)

## Cc1cc(-c2ccc3c(n2)N(C(=O)Nc2ccn(C)n2)[C@H]2CCN3C2)ccn1 [Example 182, (4S)-N-(1-methyl-1H-pyrazol-3-yl)-7-(2-methylpyridin-4-yl)-3,4-dihydro-1,4-methanopyrido[2,3-b][1,4]diazepine-5(2H)-carboxamide]
  TRP Activity (EC1.5): B (EC1.5 1-25 μM)
[1]
  TRP MAX RESP (percent maximum fold activation): A (Fold activation ≧150%)

## O=C(Nc1ccnc(OC[C@@H](O)CO)c1)N1c2nc(-c3cncc(C(F)(F)F)c3)c(Cl)cc2N2CC[C@H]1C2 [Example 109, (4S)-8-chloro-N-(2-((S)-2,3-dihydroxypropoxy)pyridin-4-yl)-7-(5-(trifluoromethyl)pyridin-3-yl)-3,4-dihydro-1,4-methanopyrido[2,3-b][1,4]diazepine-5(2H)-carboxamide]
  TRP Activity (EC1.5): B (EC1.5 1-25 μM)
[1]
  TRP MAX RESP (percent maximum fold activation): A (Fold activation ≧150%)

## O=C(Nc1cc(OC[C@@H](O)CO)ncn1)N1c2nc(-c3cccc(C(F)(F)F)c3)c(Cl)cc2N2CC[C@H]1C2 [Example 75, (4S)-8-chloro-N-(6-((S)-2,3-dihydroxypropoxy)pyrimidin-4-yl)-7-(3-(trifluoromethyl)phenyl)-3,4-dihydro-1,4-methanopyrido[2,3-b][1,4]diazepine-5(2H)-carboxamide]
  TRP Activity (EC1.5): B (EC1.5 1-25 μM)
[1]
  TRP MAX RESP (percent maximum fold activation): A (Fold activation ≧150%)

## O=C(Nc1ncc(OC[C@@H](O)CO)cn1)N1c2nc(-c3cccc(C(F)(F)F)c3)c(Cl)cc2N2CC[C@H]1C2 [Example 83, (4S)-8-chloro-N-(5-((S)-2,3-dihydroxypropoxy)pyrimidin-2-yl)-7-(3-(trifluoromethyl)phenyl)-3,4-dihydro-1,4-methanopyrido[2,3-b][1,4]diazepine-5(2H)-carboxamide]
  TRP Activity (EC1.5): B (EC1.5 1-25 μM)
[1]
  TRP MAX RESP (percent maximum fold activation): A (Fold activation ≧150%)

## O=C(Nc1cnc(OC[C@@H](O)CO)cn1)N1c2nc(-c3cccc(C(F)(F)F)c3)c(Cl)cc2N2CC[C@H]1C2 [Example 33, (4S)-8-chloro-N-(5-((S)-2,3-dihydroxypropoxy)pyrazin-2-yl)-7-(3-(trifluoromethyl)phenyl)-3,4-dihydro-1,4-methanopyrido[2,3-b][1,4]diazepine-5(2H)-carboxamide]
  TRP Activity (EC1.5): B (EC1.5 1-25 μM)
[1]
  TRP MAX RESP (percent maximum fold activation): A (Fold activation ≧150%)

## Cc1cc(-c2ccc3c(n2)N(C(=O)Nc2cc4cn[nH]c4cn2)[C@H]2CCN3C2)ccn1 [Example 130, (4S)-7-(2-methylpyridin-4-yl)-N-(1H-pyrazolo[3,4-c]pyridin-5-yl)-3,4-dihydro-1,4-methanopyrido[2,3-b][1,4]diazepine-5(2H)-carboxamide]
  TRP Activity (EC1.5): A (EC1.5<1 μM)
[1]
  TRP MAX RESP (percent maximum fold activation): A (Fold activation ≧150%)

## Cc1cc(-c2nc3c(cc2Cl)N2CC[C@@H](C2)N3C(=O)Nc2ccnc(OC[C@@H](O)CO)c2)ccn1 [Example 37, (4S)-8-chloro-N-(2-((S)-2,3-dihydroxypropoxy)pyridin-4-yl)-7-(2-methylpyridin-4-yl)-3,4-dihydro-1,4-methanopyrido[2,3-b][1,4]diazepine-5(2H)-carboxamide]
  TRP Activity (EC1.5): B (EC1.5 1-25 μM)
[1]
  TRP MAX RESP (percent maximum fold activation): A (Fold activation ≧150%)

## O=C(Nc1cnccn1)N1c2nc(-c3ccn[nH]3)ccc2N2CC[C@H]1C2 [Example 176, (4S)-N-(pyrazin-2-yl)-7-(1H-pyrazol-5-yl)-3,4-dihydro-1,4-methanopyrido[2,3-b][1,4]diazepine-5(2H)-carboxamide]
  TRP Activity (EC1.5): B (EC1.5 1-25 μM)
[1]
  TRP MAX RESP (percent maximum fold activation): A (Fold activation ≧150%)

## O=C(Nc1ccnc(OC[C@H](O)CO)n1)N1c2nc(-c3cccc(C(F)(F)F)c3)ccc2N2CC[C@H]1C2 [Example 127, (4S)-N-(2-((R)-2,3-dihydroxypropoxy)pyrimidin-4-yl)-7-(3-(trifluoromethyl)phenyl)-3,4-dihydro-1,4-methanopyrido[2,3-b][1,4]diazepine-5(2H)-carboxamide]
  TRP Activity (EC1.5): A (EC1.5<1 μM)
[1]
  TRP MAX RESP (percent maximum fold activation): A (Fold activation ≧150%)
